Experimental data: patent publication US20240252474A1, “METHODS AND COMPOSITIONS COMPRISING A CARDIO-TOLERATED HDAC INHIBITOR” (HUYABIO International, LLC, priority 2023, published 2024)
Values joined by “and” are separate entries in the source; they are usually repeats but may differ in a detail not shown here. Equal entries are not always repeated. Where two headings read alike, the source gives them in different places.

Legend:
[1] = Non-compartmental PK analysis of HBI-8000 plasma concentrations; format: in vivo, human; details: for AUC0-7/D / AUC0-24/D / Cmax/D / CPre/D: dose-normalized; for AUC from 0 to 7 h post-dose: read-out: AUC0-7; for AUC(0-t): read-out: AUC0-24
Description: Statistical analyses of safety, tolerability, and anti-tumor activity were primarily descriptive in nature. Toxicities were tabulated by type and grade. The safety population included all patients who received ≥1 dose of HBI-8000 and nivolumab. Continuous variables were summarized using descriptive statistics and categorical variables were summarized with number and percentage at each category. Pharmacokinetic parameters were derived using noncompartmental methods with Phoenix® WinNonlin® Version 6.4 (Certara, L. P., Princeton, NJ, USA).
(§1) Non-compartmental PK analysis for HBI-8000 was conducted in Phase 1b using serial plasma concentration data collected up to 24 hours post-dose for the first (Cycle 1 Day 1; C1D1) dose and up to 7 hours post-dose for the ninth (C2D1) dose of HBI-8000. In conjunction with PK, Holter monitors were used to record 12-lead continuous digital ECGs (under controlled conditions to minimize digital noise) on a baseline day (within 1-7 days prior to C1D1) and on C1D1 (Phase 1b only). Triplicate 10-second ECGs were extracted from the Holter flashcard at matched time-points on the baseline day and on C1D1 up to 4 hours post-dose and the PR, QRS, RR, and QT intervals were analyzed by a Central ECG Laboratory. Meal-times (breakfast) were standardized across both days and occurred after or ≥1 hour before the scheduled extraction times for triplicate ECGs. The measured QT data were corrected for heart rate using Fridericia (QTcF).

[2] = tested on: electrocardiogram (ECG) QT interval; assay: 12-lead Holter ECG (QTcF, heart rate) and concentration-QT modeling; format: in vivo; details: for median ΔQTcF across time points: C1D1, up to 4 hours post dose
Protocol: In conjunction with the pharmacokinetic analysis, Holter monitors were used to record 12-lead continuous digital ECGs (under controlled conditions to minimize digital noise) on a baseline day (within 1-7 days prior to C1D1) and on C1D1 (Phase 1b only). Triplicate 10-second ECGs were extracted from the Holter flashcard at matched time-points on the baseline day and on C1D1 at pre-dose (0.5 hr prior to breakfast), and up to 4 hours post-dose. The PR, QRS, RR, and QT intervals were analyzed by a central ECG laboratory. Mealtimes (breakfast) were standardized across both days. The measured QT data were corrected for heart rate using the Fridericia correction (QTcF). • QTcF was calculated using the formula: Fridericia: QTcFri=QT/(RR)^1/3 (Fridericia L S. Die systolendauer im elektrokardiogramm bei normalenmenschen und bei herzkranken. Acta Med Scand. 1920; 53:469-486).
as §1

[3] = tested on: advanced solid tumors, including melanoma, RCC (renal cell carcinoma), and NSCLC (non-small cell lung cancer); assay: Tumor response by RECIST v.1.1; format: in vivo, human
Description: The decision to escalate the dose was based on the conventional 3+3 design and observed incidences of dose-limiting toxicities (DLTs). Each treatment cycle was defined as 28 days. To be evaluable for DLT, a subject must have developed DLT, or received the minimum 75% of the planned HBI-8000 dose within the 28-day DLT evaluation period in the absence of treatment delays due to toxicities. Subjects experiencing DLT within the first two weeks after having received 100% of assigned dose of HBI-8000 are also evaluable for DLT. Unacceptable toxicities were defined as grade 3 or higher non-hematologic and hematologic toxicities with clinical complications. Unacceptable toxicities observed over the first 28 days following HBI-8000 administration were considered as DLTs. The RP2D was identified as the highest dose at which the DLT incidence was less than 33.3%. HBI-8000 administration continued until disease progression or unacceptable toxicity was observed. The efficacy of the combination was further evaluated in an expanded cohort of selected patient populations at RP2D based on an objective response rate according to Response Evaluation Criteria in Solid Tumors (RECIST) version 1.1 criteria, progression-free survival, and duration of responses.
Tumor assessments were performed every 8 weeks until treatment discontinuation, then every 12 (±1) weeks in subjects in whom disease progression has not yet been observed, and followed the guidelines specified by RECIST v.1.1 and immune-related Response Evaluation Criteria In Solid Tumors (iRECIST).

[4] = 20 mg, n = 2, individual values
[5] = C1D1, 20 mg, n = 3, geometric mean
[6] = C1D1, 30 mg, n = 7, geometric mean
[7] = C1D1, 40 mg, n = 7, geometric mean
[8] = C2D1, 20 mg, n = 2, individual values
[9] = C2D1, 30 mg, n = 3, geometric mean
[10] = C2D1, 40 mg, n = 4, geometric mean
[11] = human, plasma, oral, 20 mg, C1D1, 20 mg, n = 3, geometric mean
[12] = human, plasma, oral, 30 mg, C1D1, 30 mg, n = 7, geometric mean
[13] = HBI-8000 + nivolumab, 3 NSCLC patients
[14] = HBI-8000 + nivolumab, 5 melanoma patients
[15] = HBI-8000 + nivolumab, 7 RCC patients

Nc1cc(F)ccc1NC(=O)c1ccc(CNC(=O)/C=C/c2cccnc2)cc1 [HBI-8000, N-(2-amino-4-fluorophenyl)-4-[[[(2E)-1-oxo-3-(3-pyridinyl)-2-propen-1-yl]amino]methyl]benzamide]
median plasma concentration at 4 hours, lower than Cmax by ([1]; 20 mg dose): 17%
AUC0-7 Ratio (C2D1/C1D1) [1, 4]: 0.69 and 1.99
Cmax Ratio (C2D1/C1D1) [1, 4]: 1.06 and 1.80
median plasma concentration at 4 hours, lower than Cmax by ([1]; 30 mg dose): 19%
AUC0-7 Ratio (C2D1/C1D1) ([1]; 30 mg, n = 3, geometric mean): 1.37
Cmax Ratio (C2D1/C1D1) ([1]; 30 mg, n = 3, geometric mean): 1.08
AUC0-7 Ratio (C2D1/C1D1) ([1]; 40 mg, n = 3, geometric mean): 1.36
Cmax Ratio (C2D1/C1D1) ([1]; 40 mg, n = 4, geometric mean): 1.18
median plasma concentration at 4 hours, lower than Cmax by ([1]; 40-mg dose): 15%
Accumulation, first versus ninth dose ([1]; BIW dosing, C1D1 vs C2D1): No significant accumulation
Cmax ([1]; C1D1, 20 mg oral, n = 3, geometric mean): 104.9 ng/mL
AUC0-7/D [1, 5]: 19.2 ng·h/mL/mg
AUC0-24/D [1, 5]: 79.5 ng·h/mL/mg
Cmax/D [1, 5]: 5.24 ng/mL/mg
Cmax ([1]; C1D1, 30 mg oral, n = 7, geometric mean): 117.6 ng/mL
AUC0-7/D [1, 6]: 11.4 ng·h/mL/mg
AUC0-24/D [1, 6]: 57.8 ng·h/mL/mg
Cmax/D [1, 6]: 3.92 ng/mL/mg
Cmax ([1]; C1D1, 40 mg oral, n = 7, geometric mean): 259.3 ng/mL
AUC0-7/D ([1]; C1D1, 40 mg, n = 6, geometric mean): 24.3 ng·h/mL/mg
AUC0-24/D [1, 7]: 92.2 ng·h/mL/mg
Cmax/D [1, 7]: 6.49 ng/mL/mg
Cmax ([1]; C2D1, 20 mg BIW, n = 2, individual values): 83.1 ng/mL and 182 ng/mL
AUC0-7 [1, 8]: 250 ng·h/mL and 728 ng·h/mL
CPre (pre-dose trough concentration) [1, 8]: 4.76 ng/mL and 4.79 ng/mL
Tmax [1, 8]: 3.0 h
AUC0-7/D [1, 8]: 12.5 ng·h/mL/mg and 36.4 ng·h/mL/mg
CPre/D [1, 8]: 0.238 ng/mL/mg and 0.240 ng/mL/mg
Cmax/D [1, 8]: 4.16 ng/mL/mg and 9.10 ng/mL/mg
CPre (pre-dose trough concentration) [1, 9]: 16.1 ng/mL
AUC0-7/D [1, 9]: 13.1 ng·h/mL/mg
CPre/D [1, 9]: 0.536 ng/mL/mg
Cmax/D [1, 9]: 3.76 ng/mL/mg
CPre (pre-dose trough concentration) [1, 10]: 14.2 ng/mL
AUC0-7/D [1, 10]: 23.2 ng·h/mL/mg
CPre/D [1, 10]: 0.356 ng/mL/mg
Cmax/D [1, 10]: 5.73 ng/mL/mg
AUC from 0 to 7 h post-dose [1, 11]: 384 ng·h/mL
AUC(0-t) [1, 11]: 1590 ng·h/mL
Tmax ([1]; human, plasma, oral, 20 mg, C1D1, 20 mg, n = 3, median, read-out: tmax): 6.6 h
AUC from 0 to 7 h post-dose [1, 12]: 342 ng·h/mL
AUC(0-t) [1, 12]: 1730 ng·h/mL
Tmax ([1]; human, plasma, oral, 30 mg, C1D1, 30 mg, n = 7, median, read-out: tmax): 6.5 h
Cmax ([1]; human, plasma, oral, 30 mg, C2D1, 30 mg BIW, n = 3, geometric mean, read-out: Cmax): 113 ng/mL
AUC from 0 to 7 h post-dose ([1]; human, plasma, oral, 30 mg, C2D1, 30 mg, n = 3, geometric mean): 392 ng·h/mL
Tmax ([1]; human, plasma, oral, 30 mg, C2D1, 30 mg, n = 3, median, read-out: tmax): 6.7 h
AUC from 0 to 7 h post-dose ([1]; human, plasma, oral, 40 mg, C1D1, 40 mg, n = 6, geometric mean): 973 ng·h/mL
AUC(0-t) ([1]; human, plasma, oral, 40 mg, C1D1, 40 mg, n = 7, geometric mean): 3690 ng·h/mL
Tmax ([1]; human, plasma, oral, 40 mg, C1D1, 40 mg, n = 7, median, read-out: tmax): 4.8 h
Cmax ([1]; human, plasma, oral, 40 mg, C2D1, 40 mg BIW, n = 4, geometric mean, read-out: Cmax): 229 ng/mL
AUC from 0 to 7 h post-dose ([1]; human, plasma, oral, 40 mg, C2D1, 40 mg, n = 4, geometric mean): 929 ng·h/mL
Tmax ([1]; human, plasma, oral, 40 mg, C2D1, 40 mg, n = 4, median, read-out: tmax): 6.8 h
Tmax ([1]; human, plasma, oral, 40 mg, range across 20, 30 and 40 mg BIW dose cohorts, post dose, read-out: median time to peak plasma concentration (tmax)): 5 to 7 h
Cmax ([1]; human, plasma, po, 20 mg, C1D1, 20 mg oral, n = 3, geometric mean, read-out: Cmax): 105 ng/mL
Cmax ([1]; human, plasma, po, 30 mg, C1D1, 30 mg oral, n = 7, geometric mean, read-out: Cmax): 118 ng/mL
Cmax ([1]; human, plasma, po, 40 mg, C1D1, 40 mg oral, n = 7, geometric mean, read-out: Cmax): 259 ng/mL
median ΔQTcF across time points ([2]; 30 mg dose): 0 to −1.5 ms
highest median decrease in QTcF ([2]; 40 mg dose, 4 hours post dose): -11.5 ms
median ΔQTcF across time points ([2]; 40 mg dose): −3.0 to −11.5 ms
mean upper 90% confidence limits of model-predicted ΔQTcF ([2]; 20, 30 and 40 mg doses, threshold 10 ms): −1.1 to −2.8 ms
QTcF values ([2]; all patients, 20-40 mg): ≤ 450 ms
ΔQTcF values ([2]; all patients, 20-40 mg): ≤ 30 ms
Effect on QTcF (conclusion) ([2]; at the doses and regimen administered): did not prolong QTcF
change from baseline ventricular heart rate ([2]; single dose 20, 30 or 40 mg on C1D1, 0 to 4 hour): remained essentially stable
NSCLC, PR [3, 13]: 1 patients
NSCLC, stable disease [3, 13]: 2 patients
Melanoma, complete response (CR) [3, 14]: 1 patients
Melanoma, partial responses (PR) [3, 14]: 4 patients
Melanoma patients who responded ([3]; HBI-8000 + nivolumab, 5 melanoma patients, RECIST v.1.1): 5 patients
RCC, PR [3, 15]: 2 patients
RCC, progressive disease [3, 15]: 4 patients
RCC, stable disease [3, 15]: 1 patients
earliest objective response, time of treatment ([3]; HBI-8000 + nivolumab, first scheduled tumor assessment, end of Cycle 2): 8 weeks
longest time to response after treatment initiation ([3]; one patient, nivolumab and HBI-8000 ceased after 16 months): 32 months
